Data set [1] has as its target E. coli BL21(DE3) pyruvate kinase PykA (EC 2.7.1.40), N-terminal (His)6, SEQ ID NO 1, free in solution (Escherichia coli, UniProt P21599). To be noted: free enzyme (ratio 0), apparent.
The target of data set [2] is E. coli BL21(DE3) pyruvate kinase PykA (EC 2.7.1.40), N-terminal (His)6, SEQ ID NO 1, on mixed 525 QD/NPL (Escherichia coli, UniProt P21599). Particulars: ratio 2 enzyme per NP.
Data set [3] concerns the target T1, E. coli BL21(DE3) lactate dehydrogenase LDH (EC 1.1.1.28), N-terminal (His)6, SEQ ID NO 2, assembled on 641 QDs (Escherichia coli, UniProt P52643).
T1 sequence (P52643 with tags, fused parts or gaps): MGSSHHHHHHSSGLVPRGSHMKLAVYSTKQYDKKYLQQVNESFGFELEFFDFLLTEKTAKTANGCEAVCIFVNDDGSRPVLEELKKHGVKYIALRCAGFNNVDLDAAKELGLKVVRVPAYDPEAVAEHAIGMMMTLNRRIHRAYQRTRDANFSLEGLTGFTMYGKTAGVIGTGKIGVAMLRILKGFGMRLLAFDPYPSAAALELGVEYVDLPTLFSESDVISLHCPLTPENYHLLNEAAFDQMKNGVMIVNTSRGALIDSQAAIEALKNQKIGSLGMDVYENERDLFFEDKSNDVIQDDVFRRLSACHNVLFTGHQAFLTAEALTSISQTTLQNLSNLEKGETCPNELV
Kind of data set: Michaelis Menten kinetics of LDH assembled on 641 QDs. The data set is classed as biochemical, E. coli strain BL21(DE3). To be noted: apparent. An excerpt:
(§1) The latter are a quasi-two-dimensional QD-like material. As noted above in the Definitions section, NP or nanomaterial is used interchangeable to refer generically to these materials while QDs and NPLs are used to specify a given type. The NP materials were surface functionalized with the zwitterionic dihydrolipoic acid derivative compact ligand 4 (CL4, see U.S. Pat. No. 8,859,284), which replace the hydrophobic ligands utilized during nanomaterial crystal growth for colloidal stability in aqueous buffers. For enzyme attachment or bioconjugation to the NPs, self-assembly was driven by metal affinity coordination of the enzyme's pendant (His)6-motifs to the QD's ZnS shell.

For data set [4], the target named is T2, E. coli BL21(DE3) lactate dehydrogenase LDH (EC 1.1.1.28), N-terminal (His)6, SEQ ID NO 2, free in solution (Escherichia coli, UniProt P52643).
T2 sequence (P52643 with tags, fused parts or gaps): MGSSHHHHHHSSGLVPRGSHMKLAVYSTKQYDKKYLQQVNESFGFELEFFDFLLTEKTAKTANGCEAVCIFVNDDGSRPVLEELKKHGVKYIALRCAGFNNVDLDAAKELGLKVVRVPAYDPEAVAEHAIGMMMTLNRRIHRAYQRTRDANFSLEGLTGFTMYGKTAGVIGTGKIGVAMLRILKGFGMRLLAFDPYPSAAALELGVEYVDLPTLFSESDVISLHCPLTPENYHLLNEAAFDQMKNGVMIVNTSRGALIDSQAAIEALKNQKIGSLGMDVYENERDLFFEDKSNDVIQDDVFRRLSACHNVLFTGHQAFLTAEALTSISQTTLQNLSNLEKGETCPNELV
Kind of data set: Michaelis Menten kinetics of LDH free in solution. The data set is classed as biochemical, E. coli strain BL21(DE3). To be noted: free enzyme (ratio 0), apparent.

Data set [5] concerns the target T3, E. coli BL21(DE3) lactate dehydrogenase LDH (EC 1.1.1.28), N-terminal (His)6, SEQ ID NO 2, assembled on 625 QDs (Escherichia coli, UniProt P52643).
T3 sequence (P52643 with tags, fused parts or gaps): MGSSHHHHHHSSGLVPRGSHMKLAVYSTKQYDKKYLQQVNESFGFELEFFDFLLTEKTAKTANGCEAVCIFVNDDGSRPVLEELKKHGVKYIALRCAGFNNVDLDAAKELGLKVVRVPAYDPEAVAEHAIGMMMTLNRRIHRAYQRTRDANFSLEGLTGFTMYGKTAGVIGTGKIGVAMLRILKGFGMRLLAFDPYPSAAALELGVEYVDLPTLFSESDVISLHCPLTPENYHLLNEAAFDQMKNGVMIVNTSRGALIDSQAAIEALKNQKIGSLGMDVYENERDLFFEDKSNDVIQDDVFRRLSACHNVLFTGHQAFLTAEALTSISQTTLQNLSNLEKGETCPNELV
Put plainly: Michaelis Menten kinetics of LDH assembled on 625 QDs. The class given is biochemical, E. coli strain BL21(DE3). Particulars: apparent.
Description: as §1

The target in data set [6] is T4, E. coli BL21(DE3) lactate dehydrogenase LDH (EC 1.1.1.28), N-terminal (His)6, SEQ ID NO 2, assembled on 525 QDs (Escherichia coli, UniProt P52643).
T4 sequence (P52643 with tags, fused parts or gaps): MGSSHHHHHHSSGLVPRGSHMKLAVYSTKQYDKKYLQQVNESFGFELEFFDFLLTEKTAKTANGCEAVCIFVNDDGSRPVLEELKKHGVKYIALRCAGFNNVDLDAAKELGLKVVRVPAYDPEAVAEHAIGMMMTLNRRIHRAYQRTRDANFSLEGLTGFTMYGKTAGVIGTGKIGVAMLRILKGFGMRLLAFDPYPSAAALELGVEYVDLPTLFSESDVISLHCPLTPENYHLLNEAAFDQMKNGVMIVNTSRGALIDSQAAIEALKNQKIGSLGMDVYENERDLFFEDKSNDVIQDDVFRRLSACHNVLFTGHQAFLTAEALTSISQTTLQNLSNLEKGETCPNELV
Put plainly: Michaelis Menten kinetics of LDH assembled on 525 QDs. The class given is biochemical, E. coli strain BL21(DE3). To be noted: apparent.
Description: as §1

The target in data set [7] is T5, E. coli BL21(DE3) lactate dehydrogenase LDH (EC 1.1.1.28), N-terminal (His)6, SEQ ID NO 2, on mixed 525 QD/NPL (Escherichia coli, UniProt P52643).
T5 sequence (P52643 with tags, fused parts or gaps): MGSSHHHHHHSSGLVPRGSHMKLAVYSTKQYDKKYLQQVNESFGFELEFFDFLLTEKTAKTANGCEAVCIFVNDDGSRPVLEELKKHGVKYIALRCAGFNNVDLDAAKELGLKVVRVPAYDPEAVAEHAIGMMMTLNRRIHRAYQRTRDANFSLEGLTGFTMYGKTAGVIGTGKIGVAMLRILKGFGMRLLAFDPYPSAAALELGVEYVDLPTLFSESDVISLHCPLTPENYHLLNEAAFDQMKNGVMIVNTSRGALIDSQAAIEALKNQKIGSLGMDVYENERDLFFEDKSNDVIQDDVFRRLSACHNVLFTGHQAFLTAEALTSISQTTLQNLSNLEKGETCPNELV
The class given is biochemical, E. coli strain BL21(DE3). To be noted: 0.75 nM 525 QD/0.5 nM NPL, ratio 2 per NP, apparent.
Description: as §1

Data set [8] deals with T6, E. coli BL21(DE3) lactate dehydrogenase LDH (EC 1.1.1.28), N-terminal (His)6, SEQ ID NO 2, assembled on NPLs (Escherichia coli, UniProt P52643).
T6 sequence (P52643 with tags, fused parts or gaps): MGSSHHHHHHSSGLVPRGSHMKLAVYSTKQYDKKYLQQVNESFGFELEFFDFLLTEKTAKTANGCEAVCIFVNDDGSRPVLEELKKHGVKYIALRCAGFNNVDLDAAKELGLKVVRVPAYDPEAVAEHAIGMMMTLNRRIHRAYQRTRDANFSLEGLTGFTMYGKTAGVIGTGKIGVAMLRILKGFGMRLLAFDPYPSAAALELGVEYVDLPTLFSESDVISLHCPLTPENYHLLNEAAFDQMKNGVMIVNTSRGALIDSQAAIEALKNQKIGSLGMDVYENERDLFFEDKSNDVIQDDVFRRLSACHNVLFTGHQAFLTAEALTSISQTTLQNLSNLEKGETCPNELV
Put plainly: Michaelis Menten kinetics of LDH assembled on NPLs. The class given is biochemical, E. coli strain BL21(DE3). To be noted: ratio 1 LDH per NPL, apparent.
Description: as §1

Substrate in data set [9]: CC(=O)C(=O)O
Put plainly: Michaelis Menten kinetics of LDH free in solution. To be noted: other: free enzyme (ratio 0), apparent, pH 8.0. The class given is biochemical, E. coli strain BL21(DE3).

E. coli BL21(DE3) pyruvate kinase PykA (EC 2.7.1.40), N-terminal (His)6, SEQ ID NO 1, on mixed 525 QD/NPL, sequence (P21599 whole entry, added parts left off): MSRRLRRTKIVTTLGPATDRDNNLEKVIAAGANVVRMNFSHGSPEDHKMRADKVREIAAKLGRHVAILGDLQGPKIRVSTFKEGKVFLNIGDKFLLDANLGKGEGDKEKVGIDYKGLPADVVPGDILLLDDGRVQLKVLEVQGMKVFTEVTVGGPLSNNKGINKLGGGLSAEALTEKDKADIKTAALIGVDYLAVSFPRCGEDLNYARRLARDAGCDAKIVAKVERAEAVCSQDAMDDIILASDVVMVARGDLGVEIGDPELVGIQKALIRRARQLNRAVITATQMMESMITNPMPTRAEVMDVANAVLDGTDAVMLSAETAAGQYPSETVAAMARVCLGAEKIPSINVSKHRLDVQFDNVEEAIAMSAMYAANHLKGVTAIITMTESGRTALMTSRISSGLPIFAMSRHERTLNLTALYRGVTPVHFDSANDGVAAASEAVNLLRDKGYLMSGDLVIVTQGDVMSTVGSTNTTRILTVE
E. coli BL21(DE3) pyruvate kinase PykA (EC 2.7.1.40), N-terminal (His)6, SEQ ID NO 1, free in solution, sequence (P21599 whole entry, added parts left off): as above

The kcat is the number of substrate molecules converted per active site and unit of time at saturation. Regarding `C=C(OP(=O)(O)O)C(=O)O` [PEP, phosphoenolpyruvic acid], the catalytic constant (kcat) in data set [1] stood at 25 s⁻¹; in data set [2], 13.3 s⁻¹.
The kcat/KM is the second-order rate constant that governs catalysis at low substrate concentration. Turning to `CC(=O)C(=O)O` [pyruvic acid], the VMax in [3] (ratio 1 LDH per QD) came out at 8.3 ± 0.1 nM/s; in data set [3] (ratio 2 LDH per QD) it was 7.7 ± 0.3 nM/s; in data set [3] (ratio 4 LDH per QD), 3.6 ± 0.5 nM/s; in data set [3] (ratio 8 LDH per QD), 2.6 ± 0.3 nM/s; in [5] (ratio 1 LDH per QD), 69.0 ± 1 nM/s; in [5] (ratio 2 LDH per QD), 58.0 ± 3 nM/s. In addition, the VMax was 49.0 ± 1 nM/s in data set [5] (ratio 4 LDH per QD); 52.0 ± 1 nM/s in data set [5] (ratio 8 LDH per QD); 40.0 ± 6 nM/s in data set [6] (ratio 1 LDH per QD); 45.0 ± 1 nM/s in data set [6] (ratio 2 LDH per QD); 40.0 ± 1 nM/s in data set [6] (ratio 4 LDH per QD); 57.0 ± 1 nM/s in data set [6] (ratio 8 LDH per QD). For the same molecule, the VMax in data set [7] turned out to be 53.0 ± 1 nM/s. Further, the turnover number (kcat) came out at 3.32 ± 0.1 s⁻¹ in data set [3] (ratio 1 LDH per QD); 1.45 ± 0.1 s⁻¹ in data set [3] (ratio 4 LDH per QD); 1.04 ± 0.1 s⁻¹ in data set [3] (ratio 8 LDH per QD); 13.3 s⁻¹ in [4]; 19.5 ± 0.1 s⁻¹ in data set [5] (ratio 4 LDH per QD); 20.7 ± 0.1 s⁻¹ in data set [5] (ratio 8 LDH per QD). Further, the turnover number (kcat) in [6] (ratio 1 LDH per QD) is 15.9 ± 0.4 s⁻¹; in data set [6] (ratio 4 LDH per QD), 15.5 ± 0.1 s⁻¹; in data set [8] it was 32.3 s⁻¹. Also, the specificity constant (kcat/KM) in [3] (ratio 1 LDH per QD) worked out at 0.006 ± 0.002 M⁻¹ s⁻¹; in data set [3] (ratio 2 LDH per QD), 0.0038 ± 0.0007 M⁻¹ s⁻¹; in data set [3] (ratio 4 LDH per QD), 0.0021 ± 0.001 M⁻¹ s⁻¹; in data set [3] (ratio 8 LDH per QD), 0.0013 ± 0.0003 M⁻¹ s⁻¹; in data set [4], 0.015 ± 0.007 M⁻¹ s⁻¹; in data set [5] (ratio 1 LDH per QD) it was 0.021 ± 0.005 M⁻¹ s⁻¹. Further, the catalytic efficiency (kcat/KM) in [5] (ratio 2 LDH per QD) came to 0.023 ± 0.004 M⁻¹ s⁻¹; in data set [5] (ratio 4 LDH per QD), 0.018 ± 0.005 M⁻¹ s⁻¹; in data set [5] (ratio 8 LDH per QD), 0.017 ± 0.005 M⁻¹ s⁻¹; in data set [6] (ratio 1 LDH per QD) it was 0.015 ± 0.0005 M⁻¹ s⁻¹; in data set [6] (ratio 2 LDH per QD), 0.02 ± 0.007 M⁻¹ s⁻¹; in [6] (ratio 4 LDH per QD) it was 0.014 ± 0.004 M⁻¹ s⁻¹. Also, the specificity constant (kcat/KM) is 0.015 ± 0.003 M⁻¹ s⁻¹ in data set [6] (ratio 8 LDH per QD) and 0.019 ± 0.002 M⁻¹ s⁻¹ in data set [7].

B1: E. coli BL21(DE3) lactate dehydrogenase LDH (EC 1.1.1.28), N-terminal (His)6, SEQ ID NO 2, free in solution (Escherichia coli K-12) (protein)
chain: MGSSHHHHHHSSGLVPRGSHMKLAVYSTKQYDKKYLQQVNESFGFELEFFDFLLTEKTAKTANGCEAVCIFVNDDGSRPVLEELKKHGVKYIALRCAGFNNVDLDAAKELGLKVVRVPAYDPEAVAEHAIGMMMTLNRRIHRAYQRTRDANFSLEGLTGFTMYGKTAGVIGTGKIGVAMLRILKGFGMRLLAFDPYPSAAALELGVEYVDLPTLFSESDVISLHCPLTPENYHLLNEAAFDQMKNGVMIVNTSRGALIDSQAAIEALKNQKIGSLGMDVYENERDLFFEDKSNDVIQDDVFRRLSACHNVLFTGHQAFLTAEALTSISQTTLQNLSNLEKGETCPNELV
A word on the Km: it is the substrate concentration at which the rate is half of its maximum. What is called Vmax is the top rate of the reaction or transport when substrate is in excess. For the molecule B1, in data set [9], the Km was 900 ± 400 µM and the Vmax was 1.98 µM/min.

These data come from patent US20250197842A1, “IMPROVING ENZYMATIC CHANNELING EFFICIENCY VIA MIXED NANOPARTICLE SCAFFOLDS WITHIN SELF-ASSEMBLED NANOPARTICLE ENZYME CLUSTERS” (The Government of the United States of America, as …, priority 2023, published 2025).
